According to publication PMC11748363, “Antimicrobial and Antiproliferative Properties of 2‐Phenyl‐N‐(Pyridin‐2‐yl)acetamides” (Chemical Biology & Drug Design, 2025):
Converted amounts (≈) assume the structure as drawn. Read-outs that look alike come from different tables or passages of the source.

Tests used:
[1] = system: Acinetobacter baumannii DSM 30007, ATCC 19606; test: Antibacterial microdilution broth MIC, ACI; assay type: cell-based
[2] = system: Candida albicans CCM 8320, ATCC 24433; test: Antifungal microdilution broth MIC, CA
[3] = system: Mycolicibacterium aurum DSM 43999; test: Antimycobacterial microdilution broth MIC (resazurin), M. aurum; assay type: cell-based; conditions: DSM43999, read-out: MIC M. aurum
[4] = system: Candida krusei CCM 8271, ATCC 6258; test: Antifungal microdilution broth MIC, CK; conditions: Pichia kudriavzevii
[5] = system: Pseudomonas aeruginosa CCM 3955, ATCC 27853; test: Antibacterial microdilution broth MIC, PA; assay type: cell-based
[6] = system: Escherichia coli CCM 3954, ATCC 25922; test: Antibacterial microdilution broth MIC, EC; assay type: cell-based
[7] = system: Aspergillus fumigatus ATCC 204305; test: Antifungal microdilution broth MIC, AF
[8] = system: Mycolicibacterium smegmatis DSM 43465; test: Antimycobacterial microdilution broth MIC (resazurin), M. smegmatis; assay type: cell-based; conditions: DSM43465, read-out: MIC M. smegmatis
[9] = system: Candida tropicalis CCM 8264, ATCC 750; test: Antifungal microdilution broth MIC, CT
[10] = system: Staphylococcus aureus CCM 4223, ATCC 29213; test: Antibacterial microdilution broth MIC, SA; assay type: cell-based; conditions: Staphylococcus aureus
[11] = system: Aspergillus flavus CCM 8363; test: Antifungal microdilution broth MIC, AFla
[12] = system: Mycobacterium tuberculosis H37Ra; test: Antimycobacterial microdilution broth MIC (resazurin), Mtb H37Ra; assay type: cell-based; conditions: for MIC: Mycobacterium tuberculosis, H37RA
HepG2 cell line = test: Cytotoxicity CellTiter 96, HepG2; assay type: cell-based, human; conditions: Homo sapiens, HepG2, 24 h, 24 h incubation; ^c compound precipitated in the testing medium; ^d over the limit of tested concentrations
[13] = system: Staphylococcus aureus subsp. aureus CCM 4750, ATCC 43300 (MRSA); test: Antibacterial microdilution broth MIC, MRSA; assay type: cell-based; conditions: Staphylococcus aureus
[14] = system: Enterococcus faecalis CCM 4224, ATCC 29212; test: Antibacterial microdilution broth MIC, EF; assay type: cell-based
[15] = system: Candida parapsilosis CCM 8260, ATCC 22019; test: Antifungal microdilution broth MIC, CP; conditions: Lodderomyces parapsilosis
[16] = system: Klebsiella pneumoniae CCM 4415, ATCC 10031; test: Antibacterial microdilution broth MIC, KP
[17] = system: Trichophyton interdigitale CCM 8377, ATCC 9533; test: Antifungal microdilution broth MIC, TI; conditions: Trichophyton interdigitale
[18] = system: Lichtheimia corymbifera CCM 8077; test: Antifungal microdilution broth MIC, LC
[19] = system: Staphylococcus epidermidis CCM 4418, ATCC 12228; test: Antibacterial microdilution broth MIC, SE; assay type: cell-based
[20] = ATCC204305, 24 h, read-out: MIC AF 24h
[21] = ATCC204305, 48 h, read-out: MIC AF 48h
[22] = CCM8363, 24 h, read-out: MIC AFla 24h
[23] = CCM8363, 48 h, read-out: MIC AFla 48h
[24] = CCM8077, 24 h, read-out: MIC LC 24h
[25] = CCM8077, 48 h, read-out: MIC LC 48h

O=C(Cc1ccc(F)cc1)Nc1ccc(Cl)cn1 [Compound 32]
MIC ([1]; 24 h, read-out: MIC ACI 24h): > 500 µM
MIC ([1]; 48 h, read-out: MIC ACI 48h): > 500 µM
MIC ([2]; 24 h, read-out: MIC CA 24h): > 500 µM
MIC ([2]; 48 h, read-out: MIC CA 48h): > 500 µM
MIC [3]: 500 mg/L (≈ 1890 µM)
MIC ([4]; 24 h, read-out: MIC CK 24h): > 500 µM
MIC ([4]; 48 h, read-out: MIC CK 48h): > 500 µM
MIC ([5]; 24 h, read-out: MIC PA 24h): > 500 µM
MIC ([5]; 48 h, read-out: MIC PA 48h): > 500 µM
MIC ([6]; 24 h, read-out: MIC EC 24h): > 500 µM
MIC ([6]; 48 h, read-out: MIC EC 48h): > 500 µM
MIC [7, 20]: > 500 µM
MIC [7, 21]: > 500 µM
MIC [8]: 62.5 mg/L (≈ 236 µM)
MIC ([9]; 24 h, read-out: MIC CT 24h): > 500 µM
MIC ([9]; 48 h, read-out: MIC CT 48h): > 500 µM
MIC ([10]; 24 h, read-out: MIC SA 24h): > 500 µM
MIC ([10]; 48 h, read-out: MIC SA 48h): > 500 µM
MIC [11, 22]: > 500 µM
MIC [11, 23]: > 500 µM
MIC ([12]; read-out: MIC Mtb H37Ra (μM)): 59 µM
MIC ([12]; read-out: MIC Mtb H37Ra (μg/mL)): 15.6 µg/mL
IC50 (HepG2 cell line): > 250 µM
MIC ([13]; 24 h, read-out: MIC MRSA 24h): > 500 µM
MIC ([13]; 48 h, read-out: MIC MRSA 48h): > 500 µM
MIC ([14]; 24 h, read-out: MIC EF 24h): > 500 µM
MIC ([14]; 48 h, read-out: MIC EF 48h): > 500 µM
MIC ([15]; 24 h, read-out: MIC CP 24h): > 500 µM
MIC ([15]; 48 h, read-out: MIC CP 48h): > 500 µM
MIC KP 24h [16]: > 500 µM
MIC KP 48h [16]: > 500 µM
MIC ([17]; 72 h, read-out: MIC TI 72h): > 500 µM
MIC ([17]; 120 h, read-out: MIC TI 120h): > 500 µM
MIC [18, 24]: > 500 µM
MIC [18, 25]: > 500 µM
MIC ([19]; 24 h, read-out: MIC SE 24h): 125 µM (≈ 33.1 µg/mL)
MIC ([19]; 48 h, read-out: MIC SE 48h): 125 µM (≈ 33.1 µg/mL)

O=C(Cc1ccc(F)cc1)Nc1cccc(Cl)n1 [Compound 33]
MIC ([1]; 24 h, read-out: MIC ACI 24h): > 500 µM
MIC ([1]; 48 h, read-out: MIC ACI 48h): > 500 µM
MIC ([2]; 24 h, read-out: MIC CA 24h): > 500 µM
MIC ([2]; 48 h, read-out: MIC CA 48h): > 500 µM
MIC [3]: 250 mg/L (≈ 945 µM)
MIC ([4]; 24 h, read-out: MIC CK 24h): 31.2 µM (≈ 8.27 µg/mL)
MIC ([4]; 48 h, read-out: MIC CK 48h): 62.5 µM (≈ 16.5 µg/mL)
MIC ([5]; 24 h, read-out: MIC PA 24h): > 500 µM
MIC ([5]; 48 h, read-out: MIC PA 48h): > 500 µM
MIC ([6]; 24 h, read-out: MIC EC 24h): > 500 µM
MIC ([6]; 48 h, read-out: MIC EC 48h): > 500 µM
MIC [7, 20]: > 500 µM
MIC [7, 21]: > 500 µM
MIC [8]: 500 mg/L (≈ 1890 µM)
MIC ([9]; 24 h, read-out: MIC CT 24h): > 500 µM
MIC ([9]; 48 h, read-out: MIC CT 48h): > 500 µM
MIC ([10]; 24 h, read-out: MIC SA 24h): > 500 µM
MIC ([10]; 48 h, read-out: MIC SA 48h): > 500 µM
MIC [11, 22]: > 500 µM
MIC [11, 23]: > 500 µM
MIC ([12]; Calculated from MIC (μg/mL), read-out: MIC Mtb H37Ra): 59 µM
MIC ([12]; read-out: MIC Mtb H37Ra): 15.6 µg/mL
SI (selectivity index) ([12]; SI = HepG2 IC50 (μM)/MIC MtbH37Ra (μM), calculated for compounds with MIC ≤ 31.25 μg/mL): 3.6
IC50 (HepG2 cell line): 213 µM
MIC ([13]; 24 h, read-out: MIC MRSA 24h): > 500 µM
MIC ([13]; 48 h, read-out: MIC MRSA 48h): > 500 µM
MIC ([14]; 24 h, read-out: MIC EF 24h): > 500 µM
MIC ([14]; 48 h, read-out: MIC EF 48h): > 500 µM
MIC ([15]; 24 h, read-out: MIC CP 24h): > 500 µM
MIC ([15]; 48 h, read-out: MIC CP 48h): > 500 µM
MIC KP 24h [16]: > 500 µM
MIC KP 48h [16]: > 500 µM
MIC ([17]; 72 h, read-out: MIC TI 72h): > 500 µM
MIC ([17]; 120 h, read-out: MIC TI 120h): > 500 µM
MIC [18, 24]: > 500 µM
MIC [18, 25]: > 500 µM
MIC ([19]; 24 h, read-out: MIC SE 24h): > 500 µM
MIC ([19]; 48 h, read-out: MIC SE 48h): > 500 µM
